Test results published in patent US8409600B2, “Methods for prevention and/or treatment of capsular contracture” (J&E Solutions, LLC, priority 2009, dated 2013).

System: breast capsular contracture
Experiment: Clinical cases: topical treatment of breast capsular contracture (Baker grade)
Assay type: in vivo, human
Conditions: Patient #1, Aleve and massage after first revision (bilateral Grade 3 capsular contracture)
From the text: The methods of the present invention for prevention of capsular contracture comprise topical application of the composition using the following steps: • Wash and dry the affected area (that is, the skin surrounding the implant or the skin over the capsular contracture) prior to use. • Apply the composition daily (use sparingly) with vigorous massage to affected area. If necessary, exert compression or pressure when massaging to break up existing capsule. Enhanced absorption is obtained with application of the composition following a hot shower. Occlusive dressing (hydrogel), or tight clothing (sports bras), will also enhance the result. Continued daily use will yield optimal results. […] Optimal results are best maintained with daily continued application. One particularly useful embodiment of the invention involves the use of the topical compositions for the treatment/prevention of capsular contracture in breast surgery (e.g., breast implants). There are four grades of breast capsular contracture—Baker grades I through IV. The Baker grading is as follows: • Grade I—the breast is normally soft and looks natural • Grade II—the breast is a little firm but looks normal • Grade III—the breast is firm and looks abnormal • Grade IV—the breast is hard, painful, and looks abnormal. • of developed or is at risk of developing capsular contracture a topical composition. Clinical Cases Patient #1

`COc1ccc2cc([C@H](C)C(=O)O)ccc2c1` [Aleve, naproxen sodium] was tested, and the “response of capsular contracture to treatment” value was “without result”.
